# Laboratory results as given in PubChem BioAssay AID1963983 (Molecular Pharmacology Branch, DTP, NCI, 2024).
# Tested on: 186277-243-T-J2-PDC multi-cell spheroid viability
# Assay: Anticancer human tumor 186277-243-T-J2-PDC patient-derived colon adenocarcinoma cell line growth inhibition [PI3K]
# Settings: for IC50: curve of first compound; for viability, T/C: stronger effect = lower value
# Procedure, shortened: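 We assembled tumor spheroids that included a stromal compartment of HUVEC and MSCs, then exposed them to targeted agents alone and together with PI3K pathway inhibitors. Concentration series descended by half-log from clinically achievable Cmax levels. Viability served as the endpoint.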
# [1] = second compound 0.0316 µM, first compound 0.0316 µM
# [2] = second compound 0.0316 µM, first compound 0.1 µM
# [3] = second compound 0.0316 µM, first compound 0.316 µM
# [4] = second compound 0.0316 µM, first compound 1 µM
# [5] = second compound 0.0316 µM, first compound 3.16 µM
# [6] = second compound 0.0316 µM, first compound 10 µM
# [7] = second compound 0.1 µM, first compound 0.0316 µM
# [8] = second compound 0.1 µM, first compound 0.1 µM
# [9] = second compound 0.1 µM, first compound 0.316 µM
# [10] = second compound 0.1 µM, first compound 1 µM
# [11] = second compound 0.1 µM, first compound 3.16 µM
# [12] = second compound 0.1 µM, first compound 10 µM
# [13] = second compound 0.316 µM, first compound 0.0316 µM
# [14] = second compound 0.316 µM, first compound 0.1 µM
# [15] = second compound 0.316 µM, first compound 0.316 µM
# [16] = second compound 0.316 µM, first compound 1 µM
# [17] = second compound 0.316 µM, first compound 3.16 µM
# [18] = second compound 0.316 µM, first compound 10 µM
# [19] = second compound 1 µM, first compound 0.0316 µM
# [20] = second compound 1 µM, first compound 0.1 µM
# [21] = second compound 1 µM, first compound 0.316 µM
# [22] = second compound 1 µM, first compound 1 µM
# [23] = second compound 1 µM, first compound 3.16 µM
# [24] = second compound 1 µM, first compound 10 µM
# [25] = second compound 3.16 µM, first compound 0.0316 µM
# [26] = second compound 3.16 µM, first compound 0.1 µM
# [27] = second compound 3.16 µM, first compound 0.316 µM
# [28] = second compound 3.16 µM, first compound 1 µM
# [29] = second compound 3.16 µM, first compound 3.16 µM
# [30] = second compound 3.16 µM, first compound 10 µM
# [31] = second compound 10 µM, first compound 0.0316 µM
# [32] = second compound 10 µM, first compound 0.1 µM
# [33] = second compound 10 µM, first compound 0.316 µM
# [34] = second compound 10 µM, first compound 1 µM
# [35] = second compound 10 µM, first compound 3.16 µM
# [36] = second compound 10 µM, first compound 10 µM
# 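Note: spheroids exposed to compounds for seven days before viability reading.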
# 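Throughout, for viability, T/C: 100% = DMSO vehicle control viability.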
smiles,measurement,setting,value
CCCS(=O)(=O)Nc1ccc(F)c(C(=O)c2c[nH]c3ncc(-c4ccc(Cl)cc4)cc23)c1F + Cc1nc(NC(=O)N2CCCC2C(N)=O)sc1-c1ccnc(C(C)(C)C(F)(F)F)c1,IC50,second compound 0.0316 µM,5.42 µM
same,IC50,second compound 0.1 µM,5.41 µM
same,IC50,second compound 0.316 µM,4.75 µM
same,IC50,second compound 1 µM,4.85 µM
same,IC50,second compound 3.16 µM,4.26 µM
same,IC50,second compound 10 µM,< 0.0316 µM
same,"viability, T/C",[1],88.2%
same,"viability, T/C",[2],76.7%
same,"viability, T/C",[3],88.5%
same,"viability, T/C",[4],89.2%
same,"viability, T/C",[5],89%
same,"viability, T/C",[6],8.5%
same,"viability, T/C",[7],98.1%
same,"viability, T/C",[8],105%
same,"viability, T/C",[9],89.6%
same,"viability, T/C",[10],94.9%
same,"viability, T/C",[11],87.2%
same,"viability, T/C",[12],7.3%
same,"viability, T/C",[13],113%
same,"viability, T/C",[14],103%
same,"viability, T/C",[15],89.2%
same,"viability, T/C",[16],88%
same,"viability, T/C",[17],78.7%
same,"viability, T/C",[18],7.15%
same,"viability, T/C",[19],95.8%
same,"viability, T/C",[20],104%
same,"viability, T/C",[21],98.5%
same,"viability, T/C",[22],91.9%
same,"viability, T/C",[23],76.5%
same,"viability, T/C",[24],6.14%
same,"viability, T/C",[25],67.6%
same,"viability, T/C",[26],81.6%
same,"viability, T/C",[27],81.1%
same,"viability, T/C",[28],82%
same,"viability, T/C",[29],65.6%
same,"viability, T/C",[30],5.53%
same,"viability, T/C",[31],15.2%
same,"viability, T/C",[32],17.1%
same,"viability, T/C",[33],26.6%
same,"viability, T/C",[34],35.3%
same,"viability, T/C",[35],38.8%
same,"viability, T/C",[36],2.29%
CNC(=O)c1ccc(N2C(=S)N(c3ccc(C#N)c(C(F)(F)F)c3)C(=O)C2(C)C)cc1F + Cc1nc(NC(=O)N2CCCC2C(N)=O)sc1-c1ccnc(C(C)(C)C(F)(F)F)c1,IC50,second compound 0.0316 µM,> 10 µM
same,IC50,second compound 0.1 µM,> 10 µM
same,IC50,second compound 0.316 µM,> 10 µM
same,IC50,second compound 1 µM,> 10 µM
same,IC50,second compound 3.16 µM,> 10 µM
same,IC50,second compound 10 µM,< 0.0316 µM
same,"viability, T/C",[1],83.5%
same,"viability, T/C",[2],90%
same,"viability, T/C",[3],102%
same,"viability, T/C",[4],91.9%
same,"viability, T/C",[5],103%
same,"viability, T/C",[6],109%
same,"viability, T/C",[7],106%
same,"viability, T/C",[8],92.5%
same,"viability, T/C",[9],109%
same,"viability, T/C",[10],100%
same,"viability, T/C",[11],114%
same,"viability, T/C",[12],95.4%
same,"viability, T/C",[13],97.1%
same,"viability, T/C",[14],95.5%
same,"viability, T/C",[15],92%
same,"viability, T/C",[16],115%
same,"viability, T/C",[17],102%
same,"viability, T/C",[18],86.1%
same,"viability, T/C",[19],106%
same,"viability, T/C",[20],96%
same,"viability, T/C",[21],111%
same,"viability, T/C",[22],105%
same,"viability, T/C",[23],103%
same,"viability, T/C",[24],86%
same,"viability, T/C",[25],62.7%
same,"viability, T/C",[26],62.6%
same,"viability, T/C",[27],66.4%
same,"viability, T/C",[28],66.7%
same,"viability, T/C",[29],70.1%
same,"viability, T/C",[30],58.7%
same,"viability, T/C",[31],13.9%
same,"viability, T/C",[32],17.7%
same,"viability, T/C",[33],14.7%
same,"viability, T/C",[34],14%
same,"viability, T/C",[35],15.5%
same,"viability, T/C",[36],13.8%
